Consider 4 compounds from patent US20070088090A1, “Alpha-bulnesene, its preparation and its use” (Yangsen Biotechnology Co., Ltd., priority 2005, published 2007).

Data set [1] addresses T1, PAF receptor (Oryctolagus cuniculus, UniProt G1TEI7).
T1 construct: from tissue; host or cells: rabbit washed platelets (intact)
Kind of data set: [3H]PAF receptor binding assay using rabbit washed platelets. The method, then:
[^3H]PAF receptor binding assay is prepared using rabbit washed platelets. […] The reaction mixture was incubated at 4° C. for 2 hrs and then 5 mL of BSA-containing saline solution was added to terminate the reactions. The free and bound ligands were separated by filtration using a Whtman GF/C glass fiber filters which were presoaked with ice-cold water. The filters were rapidly washed with the same solution and then dried and placed into vials containing 10 mL of the scintillation fluid. Radioactivity was measured in a liquid scintillation counter (Beckman LS3801). The difference between the total radioactivity of bound [^3H]PAF in the absence and in the presence of excess unlabeled PAF is defined as specific binding of the radio-labeled ligand. In a batch of experiments, [^3H]PAF was incubated with different concentrations of PAF receptor antagonists, and the effect of the antagonist on the specific binding was expressed as percentage inhibition of the control.
Percent inhibition (%)=[100−(B/A×100)](%)
wherein A represents percent aggregation in control added and B represents percent aggregation in compound added.

The subject of data set [2] is AA-induced platelet aggregation. Put plainly: AA-induced platelet aggregation in rabbit washed platelets. The class given is cell-based. The settings on record: AA 100 μM.
Experimental: Platelet suspension was prepared as follows. Blood was collected from the marginal ear vein of New Zealand White rabbits. The blood was then anticoagulated with acid citrate dextrose (ACD, 1:6, v/v) and centrifuged for 8 min at 1000×g at room temperature. The upper portion was collected as platelet-rich plasma (PRP) and mixed with EDTA to a final concentration of 5 mM. The platelet pellets were obtained from EDTA-mixed PRP by centrifugation for 12 min at 2000×g. The platelet pellets were suspended with Ca^2+-free Tyrode's solution, and then incubated with apyrase (1 unit mL^−1) for 15 min at 37° C. […] The concentration of platelets was adjusted to 2.5×10^8 platelets mL^−1.
Platelet aggregation was measured turbidimetrically with a light-transmission Platelet Aggregation Chromogenic Kinetic System PACK4 (Helena Laboratories, Beaumont, Tex., USA) with some modifications. […] Aggregation was induced with PAF (5 nM) and AA (100 μM). The absorbance of the Tyrode's solution was taken as 0% aggregation and that of the platelet suspension as 100% aggregation. The extent of platelet aggregation was measured as the maximal increase of light transmission within 4 min after addition of the inducers. When isopropanol was used as the solvent the final concentration was fixed at 0.5% (v/v) to eliminate the effect of the solvent. All glassware was siliconized.
In data set [3] the test system is PAF-induced platelet aggregation. Put plainly: PAF-induced platelet aggregation in rabbit washed platelets. Type of data set: cell-based. The settings on record: PAF 5 nM, read-out: IC50, inhibition of platelet aggregation induced by PAF.
Experimental: Blood samples were collected from the marginal ear artery of New Zealand white rabbits. The blood was then treated to obtained platelet-rich plasma (PRP) mixed with EDTA. The platelet pellet was obtained from the EDTA-anticoagulated PRP by centrifugation. The pellet was then suspended in Tyrode solution and incubated. Platelet numbers were then counted.
The platelet suspension was stirred with solvent of test compound in solvent of different concentrations. Aggregation inducer PAF was then added to trigger the aggregation. Aggregation was determined by the transmission method using a platelet aggregation chromogenic kinetic system. The initial transmittance of the Ca^2+-containing Tyrode solution was taken as 0% aggregation and that of the platelet suspension as 100% aggregation. […] Percent inhibition by a compound was calculated.
Platelet suspension was prepared as follows. […]
Platelet aggregation was measured turbidimetrically with a light-transmission Platelet Aggregation Chromogenic Kinetic System PACK4 (Helena Laboratories, Beaumont, Tex., USA) with some modifications. […] The absorbance of the Tyrode's solution was taken as 0% aggregation and that of the platelet suspension as 100% aggregation. The extent of platelet aggregation was measured as the maximal increase of light transmission within 4 min after addition of the inducers. […]
Data set [4] has as its system TXB2 formation. Put plainly: Thromboxane B2 formation induced by AA in rabbit washed platelets (EIA). Type of data set: cell-based. The following applies: AA 100 μM, 6 min. The procedure: (§1) After challenging platelets with AA (100 μM) for 6 min, 1 mM EDTA and 20 μM indomethacin were added to terminate the reaction. By centrifugation for 5 min at 4° C. and 10,000×g, the TXB2 and PGE2 in the supernatants were assayed using EIA kits according to the procedure described by the manufacturer.

Data set [5] deals with PGE2 formation. Kind of data set: Prostaglandin E2 formation induced by AA in rabbit washed platelets (EIA). Type of data set: cell-based. The settings on record: AA 100 μM. The method, then: as §1
Data set [6] relates to rabbit platelets. Put plainly: Cytotoxicity assay in rabbit platelets. Type of data set: cell-based. The following applies: 12.5-50 μM, 30 min treatment, data not shown.
Data set [7] has as its system PAF-induced intracellular Ca2+ release. Kind of data set: PAF-induced intracellular Ca2+ release in fluo-3-loaded platelets. The settings on record: PAF 5 nM, 2.5-50 μM, read-out: IC50, inhibition of PAF-induced intracellular Ca2+ release. Type of data set: cell-based, rabbit. The procedure: Platelets pelleted from PRP were resuspended in Ca^2+-free Tyrode's solution, and then incubated with fluo-3/AM (2 μM) at 37° C. for 30 min. In order to prevent leakage of dye, probenecid (2.5 mM) was added to the buffers throughout the experiments. After washing, the fluo-3-loaded platelets were finally suspended in Ca^2+-free Tyrode's solution without heparin at a concentration of 1.3×10^8 platelets mL^−1. The fluo-3-loaded platelets were preincubated with α-bulnesene in the presence of extracellular calcium (1 mM) at 37° C. for 2 min prior to addition of PAF. Fluorescence (Ex 505 nm, Em 530 nm) was measured with a fluorescence spectrophotometer (Model F4500; Hitachi, Tokyo, Japan). At the end of the experiment, the cells were treated with digitonin (20%) followed by the addition of EGTA (50 mM) to obtain the maximal and minimal fluorescence, respectively. [Ca^2+]i was calculated as described for fluo-3/AM using the Ca^2+-dye dissociation constant 864 nM.

Each structure is given as a SMILES string.

T1 sequence (G1TEI7 1-342): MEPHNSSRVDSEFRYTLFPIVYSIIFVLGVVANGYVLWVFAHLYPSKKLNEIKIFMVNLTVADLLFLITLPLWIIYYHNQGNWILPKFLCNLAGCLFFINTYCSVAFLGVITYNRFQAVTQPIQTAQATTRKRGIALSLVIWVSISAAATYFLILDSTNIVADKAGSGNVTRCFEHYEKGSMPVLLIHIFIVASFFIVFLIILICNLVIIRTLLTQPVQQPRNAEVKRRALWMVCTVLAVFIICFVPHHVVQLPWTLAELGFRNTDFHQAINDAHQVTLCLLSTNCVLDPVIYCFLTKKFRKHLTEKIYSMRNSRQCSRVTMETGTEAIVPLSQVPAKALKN

Turning to `CCCCCCCCCCCCCCCCCCNC(=O)OCC(COP(=O)([O-])OCC[n+]1ccsc1)OC` (centres unmarked) [CV-3988], the “percent inhibition for [3H]PAF binding” value in data set [1] (10 μM, n=3) is reported as 10.10±1.74%. Besides, in data set [2], the “inhibition on AA-induced platelet aggregation” value is on record as “no inhibition”. Besides, the IC50 in data set [3] stood at 2.4 ± 1.01 µM.
Consider `COc1ccc2c(c1)c(CC(=O)O)c(C)n2C(=O)c1ccc(Cl)cc1` [Indomethacin, indomethacin], for which the inhibition at 1 µM in data set [4] (Oryctolagus cuniculus, Platelet, 0.1 h, 1 μM, read-out: percent inhibition of TXB2 formation) stood at 98.05 ± 0.16%. The “PGE2 formation in the presence of AA” value in data set [5] (indomethacin, concentration not restated (1 μM as positive control)) was “inhibited”.
As for `O=C(O)c1cc2cc(Cc3cccnc3)ccc2o1` [furegrelate], the inhibition at 300 µM in data set [4] (Oryctolagus cuniculus, Platelet, 0.1 h, 300 μM, read-out: percent inhibition of TXB2 formation) turned out to be 96.49 ± 0.78%. The “PGE2 formation in the presence of AA” value in data set [5] (300 μM) was “reversely enhanced”.
Regarding `C=C(C)C1CCC(C)=C2CCC(C)C2C1` (stereo not drawn) [α-bulnesene, 1β,4-dimethyl-7β-isopropenyl-1,2,3,5,6,7,8,8aα-octahydroazulene], the concentration for half-maximal inhibition (IC50) was found to be 17.6 ± 5.68 µM in data set [1] (0.2 nM [3H]PAF, 4° C., 2 hrs); 42.5 ± 5.97 µM in data set [2] (read-out: IC50, inhibition of platelet aggregation induced by AA); 24.5 ± 2.45 µM in data set [3]; 19.6 ± 1.32 µM in data set [7]. For the same compound, the “TXB2 formation stimulated by AA” value in data set [4] (25-100 μM) is reported as “inhibited”. The “PGE2 formation in the presence of AA” value in data set [5] (25-100 μM, 6 min) is recorded as “inhibited”. Also, in data set [6], the “toxicity in rabbit platelets” value is “did not have any toxicity”.

Usually IC50 stands for the concentration that gives 50% inhibition. Usually inhibition stands for the drop in the measured response relative to a control, in per cent.
